From US20180003695A1, “METHOD FOR QUANTITATIVE MEASUREMENT OF GASTRIC ACIDITY USING 13C CARBONATE SALT” (priority 2010, published 2018)

Key:
gastric acid secretion = experiment: Correlation between enzyme activity of CYP2C19 and CYP3A4 and effect of omeprazole, 13C-CaCO3 expiration test; assay type: in vivo, rats; conditions: ketoconazole 50 mg/kg oral 30 min before omeprazole 3 mg/kg i.v.; 13C-CaCO3 100 μmol/kg oral 2 hours after omeprazole
Description: Fasted rats (7 weeks old, female, SD rats) were used as experimental animals. The rats were divided into an omeprazole administration group (n=3), a ketoconazole pre-treatment group (n=3), and a control group (n=3).
Expired air was then collected. […] Expired air was then collected.
The above expired air was used as test samples, and Δ^13C (‰) was measured with a mass spectrometer for expired air analysis (ABCA: manufactured by SerCon) from the concentration of ^13CO2 excreted in the expired air.

[1] = test system: platelet aggregation by ADP stimulation; conditions: clopidogrel 10 mg/kg oral, ketoconazole 50 mg/kg oral 30 min before, blood 2 hours after clopidogrel
From the text: Fasted rats (7 weeks old, female, SD rats) were used as experimental animals.

Row | Compound | Δ13C (‰) in the expired air after 13C-CaCO3, effect of ketoconazole pre-treatment before omeprazole (gastric acid secretion) | platelet aggregation inhibitory action of clopidogrel under ketoconazole pre-treatment [1]
1 | CC(=O)N1CCN(c2ccc(OCC3COC(Cn4ccnc4)(c4ccc(Cl)cc4Cl)O3)cc2)CC1 (centres unmarked) [ketoconazole] | decreased | –
2 | COC(=O)[C@H](c1ccccc1Cl)N1CCc2sccc2C1 [clopidogrel] | – | reduced
